Experiment: Change over time of contrast agent concentration in circulating blood (blood sampling after administration)
Format: in vivo, nude mice
Conditions: threshold value of linearity R^2≧0.8
Excerpt: FIG. 2 is a graph illustrating contrast agent concentration change information obtained from a plurality of blood samplings of nude mice to which a contrast agent has been administered. The vertical axis represents the concentration of coloring material in blood, and the horizontal axis denotes the time elapsed since administration. The graph depicts specifically the change of the concentration after administration of contrast agent in an amount of 20 nanomoles of coloring material equivalent, to the caudal vein of the nude mice. […]
In a case where the contrast agent is administered into the circulating blood as one shot, the contrast agent concentration in the circulating blood decreases exponentially due to clearance with the passage of time, as illustrated in FIG. 2. […] When no signal is acquired within an appropriate lapse of time, therefore, the contrast agent in the circulating blood may in some instances fail to be quantified successfully. […] On the other hand, once a prolonged period of time has elapsed since administration, the contrast agent concentration in the circulating blood decreases, and becomes readily influenced by the sensitivity and/or measurement variability of the measuring instrument. […]

In the case of `CC1(C)C(/C=C/C=C/C=C/C=C2\N(CCCCS(=O)(=O)O)c3ccc4ccccc4c3C2(C)C)=[N+](CCCCS(=O)(=O)[O-])c2ccc3ccccc3c21` [ICG, indocyanine green], the “TIME [hr] (measurement time range over which concentration in blood decreases linearly on a semi-logarithmic axis)” value is reported as 0.08~0.5 hr.
